Read-outs that look alike come from different tables or passages of the source.
Key:
[1] = test system: H929 multiple myeloma tumor line; test: In vitro cytotoxicity, MTT assay (Example B, Method A); format: cell-based; conditions: H929 cells, 48 hours exposure, read-out: C50
Description: The cytotoxicity studies were carried out on the H929 multiple myeloma tumor line.
The cells are distributed onto microplates and exposed to the test compounds for 48 hours. The cell viability is then quantified by a colorimetric assay, the Microculture Tetrazolium Assay (Carmichael et al, Cancer Res. 1987, 47, 939-942).
The results are expressed in C50 which means concentration corresponding to […] of effect/inhibition.

[2] = biological target: Cy5-labelled Mcl1 (amino acids 171-321) C286S protein (UniProtKB Q07820) (Homo sapiens (Human), UniProt Q07820, C286S); test: Inhibition of Mcl-1 by the fluorescence quenching assay (Example A, Method B); format: binding
Cy5-labelled Mcl1 (amino acids 171-321) C286S protein, sequence (Q07820 171-321 C286S): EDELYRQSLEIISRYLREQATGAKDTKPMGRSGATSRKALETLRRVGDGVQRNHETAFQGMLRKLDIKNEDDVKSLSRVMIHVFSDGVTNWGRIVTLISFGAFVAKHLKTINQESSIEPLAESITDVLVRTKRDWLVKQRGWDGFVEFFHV
In short: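 Eleven-point compound series incubated 2 h at room temperature with 1 nM Cy5-tagged protein and quencher-labelled PUMA peptide at 10, 20 or 400 nM in HEPES/NaCl/Tween 20, pH 7.4, 5% DMSO. IC50 for 50% fluorescence increase by 4-parameter fit, then Ki derived (complete cKi or estimated eKi).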

Work on `Cc1cccc2c1CC(C[C@@H](C)COc1ccnc3c1[C@H](C)CCC3)[C@]21CC[C@](Nc2cccc(Cl)c2)(C(=O)O)CC1` (single isomer, unassigned) [Example 754] yielded an IC50 ([1]; Homo sapiens, NCI-H929, 48 h) of 0.0966 µM and a Ki [2] of 0.00123 µM.
Work on `C[C@@H](COc1ccnc2c1[C@H](C)CC[C@H]2O)CC1=Cc2cc(F)ccc2[C@]12CC[C@@](Nc1cccc(Cl)c1)(C(=O)O)CC2` [Example 770, (1r,4R)-4-(3-chloroanilino)-5′-fluoro-2′-[(2R)-3-{[(5R,8R)-8-hydroxy-5-methyl-5,6,7,8-tetrahydroquinolin-4-yl]oxy}-2-methylpropyl]spiro[cyclohexane-1,1′-indene]-4-carboxylic acid] yielded an IC50 ([1]; Homo sapiens, NCI-H929, 48 h) of 0.0906 µM and a Ki [2] of 0.00035 µM.
In the case of `C[C@H]1Cc2c(OC[C@H](C)C[C@H]3Cc4ccccc4[C@]34CC[C@@](Nc3cccc(Cl)c3)(C(=O)O)CC4)ccnc2[C@H](O)C1` (racemic) [Example 670, (1r,2′S,4S)-4-(3-chloroanilino)-2′-[(2R)-3-{[(6RS,8SR)-8-hydroxy-6-methyl-5,6,7,8-tetrahydroquinolin-4-yl]oxy}-2-methylpropyl]-2′,3′-dihydrospiro[cyclohexane-1,1′-indene]-4-carboxylic acid], the IC50 ([1]; Homo sapiens, NCI-H929, 48 h) is reported as 3.6 µM and the Ki [2] is reported as 0.0416 µM.
`CC[C@H]1CC[C@H](O)c2nccc(OC[C@H](C)C[C@H]3Cc4ccccc4[C@]34CC[C@@](Nc3cccc(Cl)c3)(C(=O)O)CC4)c21` [Example 678, (1r,2′S,4S)-4-(3-chloroanilino)-2′-[(2R)-3-{[(5S,8S)-5-ethyl-8-hydroxy-5,6,7,8-tetrahydroquinolin-4-yl]oxy}-2-methylpropyl]-2′,3′-dihydrospiro[cyclohexane-1,1′-indene]-4-carboxylic acid] was tested, and the IC50 ([1]; Homo sapiens, NCI-H929, 48 h) was 9.63 µM and the Ki [2] was 0.221 µM.
With `Cc1c(OC[C@H](C)C[C@H]2Cc3ccccc3[C@]23CC[C@@](Nc2cccc(Cl)c2)(C(=O)O)CC3)ccnc1CO` [Example 586, (1r,2′S,4S)-4-(3-chloroanilino)-2′-[(2R)-3-{[2-(hydroxymethyl)-3-methylpyridin-4-yl]oxy}-2-methylpropyl]-2′,3′-dihydrospiro[cyclohexane-1,1′-indene]-4-carboxylic acid] the IC50 ([1]; Homo sapiens, NCI-H929, 48 h) was 1.61 µM and the Ki [2] was 0.00262 µM.
`CC1CCc2nccc(OC[C@H](C)CC3=Cc4ccccc4[C@]34CC[C@@](Nc3cccc(Cl)c3)(C(=O)O)CC4)c21` (single isomer, unassigned) [Example 629] gave an IC50 [1] of 0.88 µM and a Ki [2] of 0.00955 µM.
Molecule `C[C@@H](COc1ccnc2c1[C@H](C)CCC2)C[C@@H]1Cc2cc(F)c(F)cc2[C@]12CC[C@@](Nc1cccc(Cl)c1)(C(=O)O)CC2` [Example 776, (1r,2′R,4R)-4-(3-chloroanilino)-5′,6′-difluoro-2′-[(2R)-2-methyl-3-{[(5R)-5-methyl-5,6,7,8-tetrahydroquinolin-4-yl]oxy}propyl]-2′,3′-dihydrospiro[cyclohexane-1,1′-indene]-4-carboxylic acid] has an IC50 ([1]; Homo sapiens, NCI-H929, 48 h) of 0.227 µM and a Ki [2] of 0.00228 µM.
`C[C@@H](COc1ccnc2c1[C@H](C)CCC2)C[C@H]1Cc2ccc(Oc3ccccc3)cc2[C@]12CC[C@@](Nc1cccc(Cl)c1)(C(=O)O)CC2` [Example 793, (1r,2′S,4S)-4-(3-chloroanilino)-2′-[(2R)-2-methyl-3-{[(5S)-5-methyl-5,6,7,8-tetrahydroquinolin-4-yl]oxy}propyl]-6′-phenoxy-2′,3′-dihydrospiro[cyclohexane-1,1′-indene]-4-carboxylic acid] gave an IC50 ([1]; Homo sapiens, NCI-H929, 48 h) of 0.857 µM and a Ki [2] of 0.0179 µM.
Work on `C[C@@H](COc1ccnc2c1[C@H](C)CCC2)CC1Cc2c(F)c(Cl)ccc2[C@]12CC[C@@](Nc1cccc(Cl)c1)(C(=O)O)CC2` (single isomer, unassigned) [Example 748] yielded an IC50 ([1]; Homo sapiens, NCI-H929, 48 h) of 0.138 µM and a Ki [2] of 0.0015 µM.
In the case of `Cc1cccc2c1C=C(C[C@@H](C)COc1ccnc3c1[C@H](C)CCC3)[C@]21CC[C@](Nc2cccc(Cl)c2)(C(=O)O)CC1` [Example 753, (1r,4R)-4-(3-chloroanilino)-4′-methyl-2′-[(2R)-2-methyl-3-{[(5R)-5-methyl-5,6,7,8-tetrahydroquinolin-4-yl]oxy}propyl]spiro[cyclohexane-1,1′-indene]-4-carboxylic acid], the IC50 ([1]; Homo sapiens, NCI-H929, 48 h) is reported as 0.111 µM and the Ki [2] is reported as 0.00322 µM.
`C[C@@H](COc1ccnc2c1[C@H](C)CCC2)C[C@H]1Cc2ccccc2[C@]12CC[C@@](Nc1ccc(F)c(Cl)c1)(C(=O)O)CC2` [Example 702, (1r,2′S,4S)-4-(3-chloro-4-fluoroanilino)-2′-[(2R)-2-methyl-3-{[(5R)-5-methyl-5,6,7,8-tetrahydroquinolin-4-yl]oxy}propyl]-2′,3′-dihydrospiro[cyclohexane-1,1′-indene]-4-carboxylic acid] showed an IC50 ([1]; Homo sapiens, NCI-H929, 48 h) of 0.0415 µM and a Ki [2] of 0.000194 µM.
`C[C@@H](COc1ccnc2c1CCC[C@H]2O)C[C@H]1Cc2ccccc2[C@]12CC[C@@](Nc1cccc(Cl)c1)(C(=O)O)CC2` [Example 668, (1r,2′S,4S)-4-(3-chloroanilino)-2′-[(2R)-3-{[(8R)-8-hydroxy-5,6,7,8-tetrahydroquinolin-4-yl]oxy}-2-methylpropyl]-2′,3′-dihydrospiro[cyclohexane-1,1′-indene]-4-carboxylic acid] gave an IC50 ([1]; Homo sapiens, NCI-H929, 48 h) of 0.355 µM and a Ki [2] of 0.00274 µM.
`C[C@@H](COc1ccnc2c1[C@H](C)CCC2)CC1=Cc2ccc(CO)cc2[C@]12CC[C@@](Nc1cccc(Cl)c1)(C(=O)O)CC2` [Example 868, (1r,4R)-4-(3-chloroanilino)-6′-(hydroxymethyl)-2′-[(2R)-2-methyl-3-{[(5R)-5-methyl-5,6,7,8-tetrahydroquinolin-4-yl]oxy}propyl]spiro[cyclohexane-1,1′-indene]-4-carboxylic acid] showed an IC50 ([1]; Homo sapiens, NCI-H929, 48 h) of 0.231 µM and a Ki [2] of 0.00019 µM.
`Cc1cc2c(cc1C)[C@]1(CC[C@@](Nc3cccc(Cl)c3)(C(=O)O)CC1)[C@@H](C[C@@H](C)COc1ccnc3ccsc13)C2` [Example 733, (1r,2′S,4S)-4-(3-chloroanilino)-5′,6′-dimethyl-2′-{(2R)-2-methyl-3-[(thieno[3,2-b]pyridin-7-yl)oxy]propyl}-2′,3′-dihydrospiro[cyclohexane-1,1′-indene]-4-carboxylic acid] showed an IC50 ([1]; Homo sapiens, NCI-H929, 48 h) of 0.211 µM and a Ki [2] of 0.00152 µM.
Molecule `CCCC#C[C@H](COc1ccnc2ccsc12)CC1=Cc2ccccc2[C@]12CC[C@@](Nc1cccc(Cl)c1)(C(=O)O)CC2` [Example 564, (1r,4R)-4-(3-chloroanilino)-2′-[(2R)-2-{[(thieno[3,2-b]pyridin-7-yl)oxy]methyl}hept-3-yn-1-yl]spiro[cyclohexane-1,1′-indene]-4-carboxylic acid] has an IC50 ([1]; Homo sapiens, NCI-H929, 48 h) of 16.1 µM and a Ki [2] of 0.0299 µM.
For `C[C@@H](COc1ccnc2c1[C@H]1CCC[C@H]1C2)C[C@H]1Cc2ccccc2[C@]12CC[C@@](Nc1cccc(Cl)c1)(C(=O)O)CC2` (single isomer, unassigned) [Example 621, (1r,2′S,4S)-4-(3-chloroanilino)-2′-[(2R)-3-{[(4bR*,7aR*)-4b,5,6,7,7a,8-hexahydropentaleno[2,1-b]pyridin-4-yl]oxy}-2-methylpropyl]-2′,3′-dihydrospiro[cyclohexane-1,1′-indene]-4-carboxylic acid], the IC50 [1] was 2.52 µM and the Ki [2] was 0.0376 µM.
`CC1CCc2c(OC[C@H](C)C[C@H]3Cc4ccccc4[C@]34CC[C@@](Nc3cccc(Cl)c3)(C(=O)O)CC4)ccnc2C1` (stereo partly drawn) [Example 650, (1r,2′S,4S)-4-(3-chloroanilino)-2′-{(2R)-2-methyl-3-[(7-methyl-5,6,7,8-tetrahydroquinolin-4-yl)oxy]propyl}-2′,3′-dihydrospiro[cyclohexane-1,1′-indene]-4-carboxylic acid] gave an IC50 ([1]; Homo sapiens, NCI-H929, 48 h) of 0.912 µM and a Ki [2] of 0.00554 µM.
`C[C@@H](COc1ccnc2c1[C@@H](C)C(F)(F)CC2)C[C@H]1Cc2ccccc2[C@]12CC[C@@](Nc1cccc(Cl)c1)(C(=O)O)CC2` [Example 701, (1r,2′S,4S)-4-(3-chloroanilino)-2′-[(2R)-3-{[(5R)-6,6-difluoro-5-methyl-5,6,7,8-tetrahydroquinolin-4-yl]oxy}-2-methylpropyl]-2′,3′-dihydrospiro[cyclohexane-1,1′-indene]-4-carboxylic acid] showed an IC50 ([1]; Homo sapiens, NCI-H929, 48 h) of 1.56 µM and a Ki [2] of 0.0285 µM.
`C[C@@H](COc1ccnc2c1[C@H](C)CCC2(F)F)C[C@H]1Cc2ccccc2[C@]12CC[C@@](Nc1cccc(Cl)c1)(C(=O)O)CC2` [Example 692, (1r,2′S,4S)-4-(3-chloroanilino)-2′-[(2R)-3-{[(5R)-8,8-difluoro-5-methyl-5,6,7,8-tetrahydroquinolin-4-yl]oxy}-2-methylpropyl]-2′,3′-dihydrospiro[cyclohexane-1,1′-indene]-4-carboxylic acid] showed an IC50 ([1]; Homo sapiens, NCI-H929, 48 h) of 0.132 µM and a Ki [2] of 0.00175 µM.
`COCCOc1ccc2c(c1)[C@]1(CC[C@@](Nc3cccc(Cl)c3)(C(=O)O)CC1)[C@@H](C[C@@H](C)COc1ccnc3ccsc13)C2` [Example 730, (1r,2′S,4S)-4-(3-chloroanilino)-6′-(2-methoxyethoxy)-2′-{(2R)-2-methyl-3-[(thieno[3,2-b]pyridin-7-yl)oxy]propyl}-2′,3′-dihydrospiro[cyclohexane-1,1′-indene]-4-carboxylic acid] showed an IC50 ([1]; Homo sapiens, NCI-H929, 48 h) of 0.21 µM and a Ki [2] of 0.0021 µM.
Molecule `C[C@@H](COc1ccnc2c1[C@H](C)CCC2)CC1=Cc2ccccc2[C@]12CC[C@@](Nc1cccc(Cl)c1)(C(=O)O)CC2` [Example 646, (1r,4R)-4-(3-chloroanilino)-2′-[(2R)-2-methyl-3-{[(5R)-5-methyl-5,6,7,8-tetrahydroquinolin-4-yl]oxy}propyl]spiro[cyclohexane-1,1′-indene]-4-carboxylic acid] has an IC50 ([1]; Homo sapiens, NCI-H929, 48 h) of 0.148 µM and a Ki [2] of 0.000593 µM.

From patent US20240150293A1, “SPIROCYCLOHEXANE DERIVATIVES, PHARMACEUTICAL COMPOSITIONS CONTAINING THEM AND THEIR USES AS ANTI-APOPTOTIC INHIBITORS” (LES LABORATOIRES SERVIER, priority 2021, published 2024)
